Results: patent US7452678B2, “Identification of biomarkers for liver toxicity” (Bristol-Myers Squibb Company, priority 2003, dated 2008)
pIC50: −log10 of the molar value.

Experiments:
HHA Cells = experiment: Cytotoxicity in the hepatocyte culture system, inhibition of ATP synthesis (CellTiter-Glo bioluminescence); format: cell-based, human
From the text: (§1) These immortalized cells are reported to be similar to quiescent normal human hepatocytes. […] The THLE-5 cell line (also named THLE-5B) was previously deposited under the terms and conditions of the Budapest Treaty at the American Type Culture Collection on Apr.
(§2) The cell line THLE-5B-3A4, which expresses the 3A4 isoform of cytochrome P450, was derived by transfection of THLE-5B-c15 with a CMV expression vector comprising a human cDNA coding for the specific P450 isoenzyme and a selection marker, using methods known in the art.
(§3) For the purposes of this study, the non-hepatotoxic drugs were administered at 50 μM (Table 1).

[1] = as above; format: cell-based, human; settings: human; hepatotoxic drugs were dosed at their IC50 for cytotoxicity, inhibition of ATP synthesis as endpoint; read-out: Concentration (IC50 value for cytotoxicity)
From the text: as §1, §2, §3

THLE-5B-3A4 [2] = experiment: LC/LC/MS/MS peptide hits of biomarker polypeptides in conditioned media of treated hepatocytes; format: cell-based, human; settings: 20 hr, concentrations of Table 1
Description: Cells were incubated for 20 hr at 37° C.
Following a single thaw in a 1 L cylinder of water at room temperature, the filtered media were concentrated by centrifugal filtration (10 kDa, Pall Gelman Laboratory, Ann Arbor, Mich.). […] After reduction, 500 nmol of iodoacetamide (Sigma) was added to each sample and incubated in the dark at room temperature for an additional 30 min. Finally, samples were diluted four-fold and 20 μg of TPCK-treated porcine trypsin (Promega, Madison, Wis.) was added to each sample prior to incubation for 18 hr at 37° C. Samples were subsequently desalted using separate C18 spin columns (Nest Group, Southboro, Mass.) before injection onto the LC/LC/MS/MS system.
The capillary column was first packed with 10 cm of C18 reversed-phase material (SelfPack Poros 10 R2, ABI, Framingham, Mass.), and this was followed by 5 cm of strong cation exchange material (Poros 20 HS SCX, ABI). A load of 200 μg of digested material, based on the total protein assay, was used for each analysis.
Each analysis included a salt step, followed by buffer wash, then a reversed phase run of increasing organic concentration. Following the completion of each successive reversed phase gradient, the salt concentration was increased, and the cycle was begun again (FIG. 2).
This separation included a 100 min analysis with a gradient of 0-40% Buffer A to B for 0 to 75 min, 40-100% B for 75-85 min, 100-0% B for 85-90 min, and finally a re-equilibration hold at 0% B for 90-100 min. The aforementioned gradients were delivered by a binary pump (1100, Agilent, Wilmington, Del.), which was split 1:200 prior to connection to the capillary column.
The mass spectrometer's capillary temp was set to 200° C., and the spray voltage was set to 2 kV. In survey scan mode, two microscans were used to acquire 9e^7 counts, with a maximum acquisition time of 1000 msec. In MS/MS mode, 3 microscans were used to acquire 2e^7 counts, with a maximum acquisition time of 300 msec. The instrument was set to trigger data dependent fragmentation of the three most intense ions detected during the MS survey scan.
The output file from the […] program was then downloaded to desktop spreadsheet programs for further statistical analysis (Excel, Microsoft, Redmond, Wash.).

THLE-5B-3A4 [3] = system: THLE-5B-3A4
Description: When the cells reached confluence, the medium was removed by aspiration, and replaced with 30 ml of serum and transferrin free PMRF-4 medium (SFM) containing either vehicle (0.5% DMSO) or compound in 0.5% DMSO.
Cells were incubated for 20 hr at 37° C. Conditioned media (i.e., media incubated with cells) was collected by decanting, then syringe-filtered through 0.22 μm membrane, and stored at −70° C. before preparation for LC/LC/MS/MS analysis.
Following electrophoresis, the proteins were transferred to PVDF membrane at 30 V for 1 hr. […] Following incubation with an anti-rabbit secondary antibody (1:5000 dilution, Sigma), bands were visualized using an enhanced chemiluminescent detection system (ECL+, Amersham, Piscataway, N.J.) and imaged using a cooled charge-coupled device camera (Fluor S-Max, Bio-Rad, Hercules, Calif.). The signals from the blots were quantified using Quantity One software (Bio-Rad).
Conditioned media samples used to identify the proteins were assayed by blotting to determine presence and relative concentrations of the proteins as a function of each treatment. This was done to verify the accuracy of the mass spectral data (Table 3) and to increase the precision of the quantitative measurements.

[4] = Table 2, panel of 20 treatments
[5] = Table 1, 8 treatments of the discovery panel

With CN1CCN(CCCN2c3ccccc3Sc3ccc(C(F)(F)F)cc32)CC1 [Trifluoperazine] the “Toxicity in HHA Cells” value (HHA Cells; [4]) was “Toxic”.

With O=C(c1ccc(OCCN2CCCCC2)cc1)c1c(-c2ccc(O)cc2)sc2cc(O)ccc12 [Raloxifene] the “Toxicity in HHA Cells” value (HHA Cells; [4]) was “Toxic”.

For CC(C)Cc1ccc(C(C)C(=O)O)cc1 (stereo not shown) [Ibuprofen], the “Toxicity in HHA Cells” value (HHA Cells; [4]) was “Non-Toxic”.

In the case of CCO[C@@H](Cc1ccc(OCCN2c3ccccc3Oc3ccccc32)cc1)C(=O)O [Ragaglitazar], the “Toxicity in HHA Cells” value (HHA Cells; [4]) was “Non-Toxic”.

With CC1(COc2ccc(CC3SC(=O)NC3=O)cc2)CCCCC1 (stereo not shown) [Ciglitazone] the “Toxicity in HHA Cells” value (HHA Cells; [5]) was “Toxic”, the “Toxicity in HHA Cells” value (HHA Cells; [4]) was “Toxic” and the pIC50 [1] was 4.42. For the same molecule, the “peptide hits BMS-PTX-062” value (THLE-5B-3A4 [2]) was 27, the “peptide hits BMS-PTX-120” value (THLE-5B-3A4 [2]) was 44 and the “peptide hits BMS-PTX-225” value (THLE-5B-3A4 [2]) was 25. The “peptide hits BMS-PTX-254” value (THLE-5B-3A4 [2]) was 28, the “peptide hits BMS-PTX-260” value (THLE-5B-3A4 [2]) was 24 and the “peptide hits BMS-PTX-265” value (THLE-5B-3A4 [2]) was 93. For the same molecule, the “peptide hits BMS-PTX-447” value (THLE-5B-3A4 [2]) was 82, the “peptide hits BMS-PTX-459” value (THLE-5B-3A4 [2]) was 31 and the “peptide hits BMS-PTX-607” value (THLE-5B-3A4 [2]) was 6. For the same molecule, the “peptide hits BMS-PTX-749” value (THLE-5B-3A4 [2]) was 142, the “peptide hits BMS-PTX-808” value (THLE-5B-3A4 [2]) was 14 and the “peptide hits BMS-PTX-837” value (THLE-5B-3A4 [2]) was 25. For the same molecule, the “peptide hits BMS-PTX-860” value (THLE-5B-3A4 [2]) was 9, the “peptide hits BMS-PTX-(29)147” value (THLE-5B-3A4 [2]) was 239 and the “peptide hits BMS-PTX-(39)147” value (THLE-5B-3A4 [2]) was 36. For the same molecule, the “change in levels of BMS-PTX-265” value (THLE-5B-3A4 [3]) was “statistically significant (p<0.05) increase”.

With C1CCC(C(CC2CCCCN2)C2CCCCC2)CC1 (stereo not shown) [Perhexilene] the “Toxicity in HHA Cells” value (HHA Cells; [4]) was “Toxic”.

With O=C1CN(/N=C/c2ccc(-c3ccc([N+](=O)[O-])cc3)o2)C(O)=N1 [Dantrolene] the “Toxicity in HHA Cells” value (HHA Cells; [4]) was “Toxic”.

For O=C(O)Cc1ccccc1Nc1c(Cl)cccc1Cl [Diclofenac], the “Toxicity in HHA Cells” value (HHA Cells; [4]) was “Non-Toxic”.

In the case of Cc1oc(-c2ccccc2)nc1CCOc1ccc(C[C@H](Nc2ccccc2C(=O)c2ccccc2)C(=O)O)cc1 [Farglitazar], the “Toxicity in HHA Cells” value (HHA Cells; [5]) was “Toxic”, the “Toxicity in HHA Cells” value (HHA Cells; [4]) was “Toxic” and the pIC50 [1] was 5.06. For the same molecule, the “peptide hits BMS-PTX-062” value (THLE-5B-3A4 [2]) was 29, the “peptide hits BMS-PTX-120” value (THLE-5B-3A4 [2]) was 35 and the “peptide hits BMS-PTX-225” value (THLE-5B-3A4 [2]) was 10. For the same molecule, the “peptide hits BMS-PTX-254” value (THLE-5B-3A4 [2]) was 14, the “peptide hits BMS-PTX-260” value (THLE-5B-3A4 [2]) was 21 and the “peptide hits BMS-PTX-265” value (THLE-5B-3A4 [2]) was 49. The “peptide hits BMS-PTX-447” value (THLE-5B-3A4 [2]) was 54, the “peptide hits BMS-PTX-459” value (THLE-5B-3A4 [2]) was 24 and the “peptide hits BMS-PTX-607” value (THLE-5B-3A4 [2]) was 13. For the same molecule, the “peptide hits BMS-PTX-749” value (THLE-5B-3A4 [2]) was 87, the “peptide hits BMS-PTX-808” value (THLE-5B-3A4 [2]) was 10 and the “peptide hits BMS-PTX-837” value (THLE-5B-3A4 [2]) was 15. The “peptide hits BMS-PTX-860” value (THLE-5B-3A4 [2]) was 15, the “peptide hits BMS-PTX-(29)147” value (THLE-5B-3A4 [2]) was 128 and the “peptide hits BMS-PTX-(39)147” value (THLE-5B-3A4 [2]) was 24. The “change in levels of BMS-PTX-265” value (THLE-5B-3A4 [3]) was “statistically significant (p<0.05) increase”.

With CC/C(=C(\c1ccccc1)c1ccc(OCCN(C)C)cc1)c1ccccc1 [Tamoxifen] the “Toxicity in HHA Cells” value (HHA Cells; [4]) was “Toxic”.

With CCO[C@@H](Cc1ccc(OCCc2ccc(OS(C)(=O)=O)cc2)cc1)C(=O)O [Tesaglitazar] the “Toxicity in HHA Cells” value (HHA Cells; [5]) was “Non-Toxic”, the “Toxicity in HHA Cells” value (HHA Cells; [4]) was “Non-Toxic” and the “peptide hits BMS-PTX-062” value (THLE-5B-3A4 [2]) was 1. The “peptide hits BMS-PTX-120” value (THLE-5B-3A4 [2]) was 3, the “peptide hits BMS-PTX-225” value (THLE-5B-3A4 [2]) was 0 and the “peptide hits BMS-PTX-254” value (THLE-5B-3A4 [2]) was 1. The “peptide hits BMS-PTX-260” value (THLE-5B-3A4 [2]) was 0, the “peptide hits BMS-PTX-265” value (THLE-5B-3A4 [2]) was 8 and the “peptide hits BMS-PTX-447” value (THLE-5B-3A4 [2]) was 6. For the same molecule, the “peptide hits BMS-PTX-459” value (THLE-5B-3A4 [2]) was 8, the “peptide hits BMS-PTX-607” value (THLE-5B-3A4 [2]) was 0 and the “peptide hits BMS-PTX-749” value (THLE-5B-3A4 [2]) was 6. For the same molecule, the “peptide hits BMS-PTX-808” value (THLE-5B-3A4 [2]) was 1, the “peptide hits BMS-PTX-837” value (THLE-5B-3A4 [2]) was 8 and the “peptide hits BMS-PTX-860” value (THLE-5B-3A4 [2]) was 0. The “peptide hits BMS-PTX-(29)147” value (THLE-5B-3A4 [2]) was 31 and the “peptide hits BMS-PTX-(39)147” value (THLE-5B-3A4 [2]) was 1.

For CCc1ccc(CCOc2ccc(CC3SC(=O)NC3=O)cc2)nc1 (stereo not shown) [Pioglitazone], the “Toxicity in HHA Cells” value (HHA Cells; [4]) was “Non-Toxic”.

For CC(C)c1nc(CN(C)C(=O)N[C@H](C(=O)N[C@@H](Cc2ccccc2)C[C@H](O)[C@H](Cc2ccccc2)NC(=O)OCc2cncs2)C(C)C)cs1 [Ritonavir], the “Toxicity in HHA Cells” value (HHA Cells; [5]) was “Toxic” and the “Toxicity in HHA Cells” value (HHA Cells; [4]) was “Toxic”.

In the case of CN(CCOc1ccc(CC2SC(=O)NC2=O)cc1)c1ccccn1 (stereo not shown) [Rosiglitazone], the “Toxicity in HHA Cells” value (HHA Cells; [5]) was “Non-Toxic” and the “Toxicity in HHA Cells” value (HHA Cells; [4]) was “Non-Toxic”.

With Cc1c(C)c2c(c(C)c1O)CCC(C)(COc1ccc(CC3SC(=O)NC3=O)cc1)O2 (stereo not shown) [Troglitazone] the “Toxicity in HHA Cells” value (HHA Cells; [5]) was “Toxic”, the “Toxicity in HHA Cells” value (HHA Cells; [4]) was “Toxic” and the pIC50 [1] was 4.49. For the same molecule, the “peptide hits BMS-PTX-062” value (THLE-5B-3A4 [2]) was 4, the “peptide hits BMS-PTX-120” value (THLE-5B-3A4 [2]) was 12 and the “peptide hits BMS-PTX-225” value (THLE-5B-3A4 [2]) was 11. The “peptide hits BMS-PTX-254” value (THLE-5B-3A4 [2]) was 7, the “peptide hits BMS-PTX-260” value (THLE-5B-3A4 [2]) was 4 and the “peptide hits BMS-PTX-265” value (THLE-5B-3A4 [2]) was 66. For the same molecule, the “peptide hits BMS-PTX-447” value (THLE-5B-3A4 [2]) was 33, the “peptide hits BMS-PTX-459” value (THLE-5B-3A4 [2]) was 14 and the “peptide hits BMS-PTX-607” value (THLE-5B-3A4 [2]) was 7. The “peptide hits BMS-PTX-749” value (THLE-5B-3A4 [2]) was 60, the “peptide hits BMS-PTX-808” value (THLE-5B-3A4 [2]) was 10 and the “peptide hits BMS-PTX-837” value (THLE-5B-3A4 [2]) was 17. For the same molecule, the “peptide hits BMS-PTX-860” value (THLE-5B-3A4 [2]) was 4, the “peptide hits BMS-PTX-(29)147” value (THLE-5B-3A4 [2]) was 67 and the “peptide hits BMS-PTX-(39)147” value (THLE-5B-3A4 [2]) was 19. The “change in levels of BMS-PTX-265” value (THLE-5B-3A4 [3]) was “statistically significant (p<0.05) increase”.

For C#C[C@]1(O)CC[C@H]2[C@@H]3CCc4cc(O)ccc4[C@H]3CC[C@@]21C [Ethinyl Estradiol], the “Toxicity in HHA Cells” value (HHA Cells; [4]) was “Non-Toxic”.
